We go through four compounds from publication PMC3179866, “Antiproliferative Activity of Xanthones Isolated from Artocarpus obtusus” (Journal of Biomedicine and Biotechnology, 2011).

≈ marks a conversion by molar mass, not a printed value. Read-outs that look alike come from different tables or passages of the source.

Experiment [1] concerns MCF7 (human estrogen receptor (ER+) positive breast cancer) cells. Briefly: MTT cytotoxicity assay, MCF7. Format: cell-based. The following applies: 72 hours continuous exposure. The text has this:
(§1) The cancerous and noncancerous cell lines (suspension and anchorage-dependent cells) were obtained from the American Type Culture Collection (ATCC) and the RIKEN Cell Bank (RCB). The cancerous cell lines used were HL-60 (human acute promyelocytic leukemia) (RCB), K562 (human chronic myeloid leukemia) (ATCC), MCF7 (human estrogen receptor (ER+) positive breast cancer) (ATCC), HeLa (human cervical cancer) (ATCC), HepG2 (human hepatocarcinoma) (ATCC), HT29 (human colon cancer) (RCI), and MDA-MB 231 (human estrogen receptor (ER−) negative) (ATCC). The noncancerous cell line and normal cells were 3T3 (Mouse embryo fibroblast) (ATCC), MCF10A (human nontumorigenic breast cell line) (ATCC) and PBMC (human peripheral blood mononuclear cells). PBMCs were obtained from one of the authors herself. Blood (10–12 mL) was taken from the donor by using the 25 mL syringe. The blood sample was diluted with same volume of PBS. The diluted blood sample was carefully layered on Ficoll-Paque Plus (Amersham Biosciences, USA) the ratio of 2 : 1. The mixture was centrifuged at 1500× g for 40 minutes at 18–20°C. The undisturbed lymphocyte layer was carefully transferred into centrifuge tube. The lymphocyte was washed and spun down three times by adding 10 mL sterile PBS and to get the pellet and resuspended in RPMI 1640 (Sigma, USA) with 100 IU/mL of penicillin, 100 μg/mL of streptomycin (Flowlab, Australia), and 10% v/v Fetal Bovine Serum (FBS) (PAA, Austria). Cell counting was performed to determine the PBMC number in equal volume of trypan blue.
The colorimetric assay was performed on the isolated compounds using a modified microculture tetrazolium salt (MTT) assay (Sigma, USA). Varying concentrations of 0.46, 0.93, 1.87, 3.75, 7.5, 15, and 30 μg/mL of pyranocycloartobiloxanthone A (1), dihydroartoindonesianin C (2), and pyranocycloartobiloxanthone B (3) were prepared from the substock solutions by serial dilution in RPMI 1640 to give a volume of 100 μL in each microtitre plate well (96-flat bottom microwell plates). Each well was then added with 100 μL of cell lines in complete growth media (RPMI 1640) 5 × 10^5 cells/mL. […] After incubation, the fractions of surviving cells were determined relative to the untreated cell population using the colorimetric MTT assay. In this method, the viabilities of the cells were determined by measuring the amount of blue formazan crystals formed after 20 mL of freshly prepared MTT solution (5 mg in 1 mL PBS) was added to each well followed by four hours of incubation at 37°C. […] Finally, the absorbance (OD) of each well at 570 nm of wavelength was read using the microplate reader (ELISA reader, EL340 Biokinetic Reader, Bio-Tek Instrumentation). […] The percentage of cell viability was determined as follows: […]
(Tetrazolium dyes change colour on reduction, which living cells bring about.)

Experiment [2] has as its system PBMC (human peripheral blood mononuclear cells). Kind of experiment: MTT cytotoxicity assay, PBMC. Format: cell-based. To be noted: PBMC (normal), 72 hours continuous exposure.
From the text: as §1, with “The lymphocyte was washed and spun down three times by adding 10 mL sterile PBS and to get the pellet and resuspended in RPMI 1640 (Sigma, USA) with 100 IU/mL of penicillin, 100 μg/mL of streptomycin (Flowlab, Australia), and 10% v/v Fetal Bovine Serum (FBS) (PAA, Austria). Cell counting was performed to determine the PBMC number in equal volume of trypan blue.” left out
(§2) The colorimetric assay was performed on the isolated compounds using a modified microculture tetrazolium salt (MTT) assay (Sigma, USA). […] After incubation, the fractions of surviving cells were determined relative to the untreated cell population using the colorimetric MTT assay. In this method, the viabilities of the cells were determined by measuring the amount of blue formazan crystals formed after 20 mL of freshly prepared MTT solution (5 mg in 1 mL PBS) was added to each well followed by four hours of incubation at 37°C. […] Finally, the absorbance (OD) of each well at 570 nm of wavelength was read using the microplate reader (ELISA reader, EL340 Biokinetic Reader, Bio-Tek Instrumentation). […] The percentage of cell viability was determined as follows: […]

In experiment [3] the test system is HL60 (human promyelocytic leukemia) cells. Briefly: MTT cytotoxicity assay, HL60. The format is cell-based. To be noted: HL-60, 72 h, 72 hours continuous exposure.
From the text: as §1, with “The lymphocyte was washed and spun down three times by adding 10 mL sterile PBS and to get the pellet and resuspended in RPMI 1640 (Sigma, USA) with 100 IU/mL of penicillin, 100 μg/mL of streptomycin (Flowlab, Australia), and 10% v/v Fetal Bovine Serum (FBS) (PAA, Austria). Cell counting was performed to determine the PBMC number in equal volume of trypan blue.” left out
as §2

Experiment [4] deals with MCF7 cells. Kind of experiment: Acridine orange / propidium iodide staining, MCF7. Format: cell-based, human. To be noted: MCF7, 5 μg/mL (IC50), 72 hours. The protocol: (§3) Cell suspensions were mixed with an equal volume of staining solution (1 : 1) containing 10 μg/mL acridine orange and 10 μg/mL propium iodide (dissolved in PBS) and observed under fluorescence microscope within 30 minutes. The viable (green intact cells), apoptotic (green shrinking cells with condensed of fragmented nucleus), and necrotic (red cells) were the morphological changes that were examined under fluorescence microscope.

The subject of experiment [5] is MCF10A (human nontumorigenic breast cell line). Kind of experiment: MTT cytotoxicity assay, MCF10A. Format: cell-based. The following applies: MCF10A (normal), 72 hours continuous exposure.
From the text: (§4) The cancerous and noncancerous cell lines (suspension and anchorage-dependent cells) were obtained from the American Type Culture Collection (ATCC) and the RIKEN Cell Bank (RCB). The cancerous cell lines used were HL-60 (human acute promyelocytic leukemia) (RCB), K562 (human chronic myeloid leukemia) (ATCC), MCF7 (human estrogen receptor (ER+) positive breast cancer) (ATCC), HeLa (human cervical cancer) (ATCC), HepG2 (human hepatocarcinoma) (ATCC), HT29 (human colon cancer) (RCI), and MDA-MB 231 (human estrogen receptor (ER−) negative) (ATCC). […]
as §2

Experiment [6] deals with HeLa (human cervical cancer) cells. Kind of experiment: MTT cytotoxicity assay, HeLa. The following applies: 72 hours continuous exposure. The format is cell-based.
From the text: as §4, §2

Experiment [7] concerns MDA-MB 231 (human estrogen receptor (ER-) negative) cells. Kind of experiment: MTT cytotoxicity assay, MDA-MB 231. The format is cell-based. The following applies: MDA-MB 231, MTT, 72 hours continuous exposure.
From the text: as §4, §2

The subject of experiment [8] is HL60 cells. Kind of experiment: Acridine orange / propidium iodide staining, HL60. The following applies: HL60, 2 μg/mL (IC50), 72 hours. The format is cell-based, human. The procedure: as §3
Experiment [9] relates to 3T3 (mouse embryo fibroblast) cells. Kind of experiment: MTT cytotoxicity assay, 3T3. Format: cell-based. The following applies: 3T3, MTT, 72 hours continuous exposure.
From the text: as §4, §2

The subject of experiment [10] is HL60 cells. Kind of experiment: Cell proliferation ELISA BrdU assay, HL60. The format is cell-based, human. The following applies: HL60, treated at IC50 concentration (2 μg/mL). The protocol:
(§5) This assay was conducted to determine the antiproliferative effects of the tested compound. In this assay, three different concentrations of compound or test sample were prepared together with control. The concentration chosen were 1 μg/mL, the IC50 concentration, and 20 μg/mL. Two types of cells were selected: HL-60 (suspension) and MCF7 (adherent) cells, since they gave the most significant results for the cytotoxic activity. The procedures are according to the instruction manual from Roche. Each sample was assayed in triplicate, and control samples include a blank (no cells) and background (without BrdU). The cells were treated by pyranocycloartobiloxanthone A (1) for 24, 48, and 72 hours. The cells were cultured together with various dilutions of test substance (tested compound) in 96-well MP flat bottom in a final volume of 100 μL/well, and 10 μL BrdU label (diluted by 1/2000 in media) was added to each well and incubated for 24 hour at 37°C. BrdU label was then replaced with 200 μL of fix/denaturing solution for 30 min at room temperature (25°C) and removed by inverting the plate. The anti-BrdU-POD working solution (100 μL/well) (diluted by 1/100 in dilution buffer) was added and incubated for one hour at room temperature. The cells were washed three times with wash buffer and once with dH2O. Then, removed dH2O and 100 μL of substrate solution was added to each well and incubated for 15 min at room temperature in the dark. The stop solution (100 μL/well) was added, and the absorbance was measured using ELISA reader at 450 nm, (reference wavelength 690). The activity was observed by the optical density (OD) of the absorbance at 450 nm, and graphs were plotted from the optical density obtained against time of exposure for each cell lines.
On the technique in general: In an ELISA, binding on a coated surface is turned into a signal by an enzyme label.

The subject of experiment [11] is MCF7 cells. Briefly: Cell proliferation ELISA BrdU assay, MCF7. Format: cell-based, human. To be noted: MCF7, treated at IC50 concentration (5 μg/mL). The procedure: as §5
Experiment [12] relates to HT29 (human colon cancer) cells. Briefly: MTT cytotoxicity assay, HT29. The format is cell-based. The following applies: HT-29, 72 hours continuous exposure.
From the text: as §4, §2

Experiment [13] has as its system HepG2 (human hepatocarcinoma) cells. Briefly: MTT cytotoxicity assay, HepG2. Format: cell-based. The following applies: 72 hours continuous exposure.
From the text: as §4, §2

The test system of experiment [14] is K562 (human chronic myeloid leukemia) cells. Briefly: MTT cytotoxicity assay, K562. The format is cell-based. The following applies: K562, 72 h, 72 hours continuous exposure.
From the text: as §4, §2

Broadly, the IC50 is the concentration that inhibits the measured activity by half. For the compound `COc1cccc2c1C(=O)c1c(O)c3c(c(O)c1C2=O)C[C@@](O)(C(=O)CO)C[C@@H]3O[C@H]1C[C@H](N)[C@H](O)[C@H](C)O1` [Doxorubicin, reference compound], the IC50 is 0.2 ± 0.06 µg/mL (≈ 0.368 µM) in [1]; over 30 µg/mL in experiment [2] (Homo sapiens, read-out: IC50); 0.2 ± 0.03 µg/mL (≈ 0.368 µM) in experiment [3].

Turning to `CC1C(O)Oc2c(O)cc(O)c3c2C1Cc1c-3oc2c3c(cc(O)c2c1=O)OC(C)(C)C=C3` (stereo not drawn) [compound 1, pyranocycloartobiloxanthone A], the “mode of cell death (AO/PI morphology)” value in experiment [4] and in experiment [8] was “kill both cells in apoptotic manner” in each case. The IC50 is over 30 µg/mL in [5] (Homo sapiens, MCF-10A, read-out: IC50); “not toxic” in [5]; 8 ± 3.3 µg/mL (≈ 17.8 µM) in experiment [6]; 12 ± 1.1 µg/mL (≈ 26.6 µM) in experiment [7]; 7 ± 1.6 µg/mL (≈ 15.5 µM) in [9]; 5 ± 1.2 µg/mL (≈ 11.1 µM) in experiment [1]. In addition, the half-inhibitory concentration (IC50) was over 30 µg/mL in [2] (Homo sapiens, read-out: IC50); “not toxic” in [2]; 14 ± 1.5 µg/mL (≈ 31.1 µM) in experiment [12]; 20 ± 2 µg/mL (≈ 44.4 µM) in experiment [13]. For the same compound, the “OD value (BrdU ELISA, 450 nm)” value is recorded as 0.8 in experiment [10] (24 hours, untreated 1.34); 0.78 in experiment [10] (48 hours, untreated 1.26); 0.66 in experiment [10] (72 hours, untreated 1.65); 0.89 in experiment [11] (24 hours, untreated 1.44); 0.75 in experiment [11] (48 hours, untreated 2.08); 0.66 in experiment [11] (72 hours, untreated 2.88).

Consider `C=C(C)c1cc2c(=O)c3c(O)cc4c(c3oc2c2c1C(C)(O)CC2=O)C=CC(C)(C)O4` (stereo not drawn) [compound 2, dihydroartoindonesianin C], for which the IC50 in experiment [1] is 27 ± 1.9 µg/mL (≈ 64.5 µM); in [14], over 30 µg/mL; in experiment [3] it was 26 ± 0.8 µg/mL (≈ 62.1 µM).

As to `CC1Oc2c(O)cc(O)c3c2C(Cc2c-3oc3c4c(cc(O)c3c2=O)OC(C)(C)C=C4)C1O` (stereo not drawn) [compound 3, pyranocycloartobiloxanthone B], the IC50 in experiment [1] is 23 ± 1.3 µg/mL (≈ 51.1 µM); in experiment [14], over 30 µg/mL; in experiment [3] it was 17 ± 0.8 µg/mL (≈ 37.7 µM).
